Laboratory results from US20060069132A1, “Azolecarboxamide herbicides” (priority 2004, published 2006).

Experiments:
[1] = test system: morningglory; experiment: Test B pre-/postemergence herbicide test; format: in vivo, Ipomoea coccinea; conditions: for Plant response rating (0 to 100 scale), Morningglory: 0 is no effect, 100 is complete control, preemergence
How it was run: (§1)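 Greenhouse pot assay with simultaneous preemergence (treated seed) and postemergence (2–18 cm seedlings) applications of surfactant-containing, non-phytotoxic solvent formulations. Response scored visually 13–15 days later on a 0–100 scale, 100 meaning complete control.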

[2] = test system: corn; experiment: Test B pre-/postemergence herbicide test; format: in vivo, Zea mays; conditions: for Plant response rating (0 to 100 scale), Corn: 0 is no effect, preemergence
How it was run: (§2)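 Formulation: non-phytotoxic solvent mix with surfactant. Timing: preemergence on seed and postemergence on 2–18 cm plants, applied concurrently. Readout after 13–15 d greenhouse: visual 0–100 control rating against controls.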

[3] = test system: small flower umbrella sedge; experiment: Test B flooded paddy test; format: in vivo, Cyperus difformis; conditions: scale 0 to 100 (0 no effect, 100 complete control)
How it was run: (§3)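 Greenhouse test; postemergence application to plants at 1–4 leaves (2–18 cm); paddy species at 2 leaves; evaluated visually vs controls at 13–15 days; scale 0–100 (100 = complete control).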

[4] = test system: wild oat; experiment: Test B postemergence herbicide test; format: in vivo, Avena fatua
How it was run: (§4)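 Scale 0–100: zero equals no visible effect, 100 complete control, judged by eye relative to controls. Timing: 13 to 15 days in greenhouse post-treatment. Growth stage at spraying: two leaves (paddy) or one to four leaves, 2–18 cm (postemergence).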

[5] = test system: giant foxtail; experiment: Test B pre-/postemergence herbicide test; format: in vivo, Setaria faberi; conditions: for Plant response rating (0 to 100 scale), Foxtail, Giant: 0 is no effect, preemergence
How it was run: as §2

[6] = test system: wheat; experiment: Test B postemergence herbicide test; format: in vivo, Triticum aestivum; parameters: key to Wheat plant response rating: 0 = no effect, 100 = complete control
How it was run: as §4

[7] = test system: pigweed; experiment: Test B pre-/postemergence herbicide test; format: in vivo, Amaranthus retroflexus; conditions: for Plant response rating (0 to 100 scale), Pigweed: 0 is no effect, 100 is complete control, preemergence
How it was run: as §2

[8] = test system: barnyardgrass; experiment: Test B pre-/postemergence herbicide test; format: in vivo, Echinochloa crus-galli; conditions: for Plant response rating (0 to 100 scale), Barnyardgrass: 0 is no effect, preemergence
How it was run: as §1

[9] = test system: velvetleaf; experiment: Test B pre-/postemergence herbicide test; format: in vivo, Abutilon theophrasti; conditions: for Plant response rating (0 to 100 scale), Velvetleaf: 0 is no effect, 100 is complete control, preemergence
How it was run: as §2

[10] = test system: lambsquarters; experiment: Test B pre-/postemergence herbicide test; format: in vivo, Chenopodium album; conditions: for Plant response rating (0 to 100 scale), Lambsquarters: 0 is no effect, 100 is complete control, preemergence
How it was run: as §2

[11] = test system: large crabgrass; experiment: Test B pre-/postemergence herbicide test; format: in vivo, Digitaria sanguinalis; conditions: for Plant response rating (0 to 100 scale), Crabgrass, Large: 0 is no effect, preemergence
How it was run: as §2

[12] = test system: ducksalad; experiment: Test B flooded paddy test; format: in vivo, Heteranthera limosa; conditions: scale 0 to 100 (0 no effect, 100 complete control)
How it was run: as §3

[13] = test system: cocklebur; experiment: Test B pre-/postemergence herbicide test; format: in vivo, Xanthium strumarium; conditions: for Plant response rating (0 to 100 scale), Cocklebur: 0 is no effect, preemergence
How it was run: as §1

[14] = test system: barnyardgrass; experiment: Test B flooded paddy test; format: in vivo, Echinochloa crus-galli; conditions: scale 0 to 100 (0 no effect, 100 complete control)
How it was run: as §3

[15] = test system: rice; experiment: Test B flooded paddy test; format: in vivo, Oryza sativa; conditions: scale 0 to 100 (0 no effect, 100 complete control)
How it was run: as §4

[16] = test system: Surinam grass; experiment: Test B pre-/postemergence herbicide test; format: in vivo, Urochloa decumbens; conditions: for Plant response rating (0 to 100 scale), Surinam Grass: 0 is no effect, 100 is complete control, preemergence
How it was run: as §2

[17] = test system: blackgrass; experiment: Test B postemergence herbicide test; format: in vivo, Alopecurus myosuroides
How it was run: as §3

[18] = Postemergence, 500 g ai/ha, scale 0 (no effect) to 100 (complete control)
[19] = postemergence, 125 g ai/ha, scale 0 to 100
[20] = 500 g ai/ha, scale 0 to 100, 0 no effect, 100 complete control, preemergence
[21] = Postemergence, 125 g ai/ha, scale 0 (no effect) to 100 (complete control)
[22] = 125 g ai/ha, 100 is complete control
[23] = 125 g ai/ha, visual rating, scale 0 (no effect) to 100 (complete control), postemergence
[24] = postemergence, 500 g ai/ha, scale 0 to 100, 0 is no effect, 100 is complete control

CCNC(=O)c1cccc(NC(=O)c2nn(C(C)(C)C)nc2Br)c1 [Compound 434]
40: Corn plant response rating [2, 18] | Corn plant response rating [2, 19] | Wheat plant response rating [6, 19] | Pigweed plant response rating [7, 19] | Lambsquarters plant response rating [10, 19]
70: Morningglory plant response rating [1, 18] | Lambsquarters plant response rating [10, 18] | Ducksalad plant response rating ([12]; 125 g ai/ha) | Cocklebur plant response rating [13, 18] | Rice plant response rating ([15]; 125 g ai/ha)
30: Foxtail, Giant plant response rating [5, 18] | Barnyardgrass plant response rating [8, 18] | Crabgrass, Large plant response rating [11, 18] | Blackgrass plant response rating [17, 19]
20: Foxtail, Giant plant response rating [5, 19] | Velvetleaf plant response rating [9, 18] | Crabgrass, Large plant response rating [11, 19] | Surinam Grass plant response rating [16, 18]
60: Morningglory plant response rating [1, 19] | Oat, Wild plant response rating [4, 18] | Pigweed plant response rating [7, 18] | Barnyardgrass plant response rating ([14]; 125 g ai/ha)
10: Barnyardgrass plant response rating [8, 21] | Velvetleaf plant response rating [9, 19] | Surinam Grass plant response rating [16, 19]
50: Oat, Wild plant response rating [4, 19] | Wheat plant response rating [6, 18] | Cocklebur plant response rating [13, 19] | Blackgrass plant response rating [17, 18]
90: Sedge, Umbrella plant response rating ([3]; 125 g ai/ha) | Wheat plant response rating [6, 20]

CCN(CC)C(=O)c1cncc(NC(=O)c2nn(C(C)(C)C)nc2C)c1 [Compound 428]
10: Corn plant response rating [2, 18] | Foxtail, Giant plant response rating [5, 18] | Foxtail, Giant plant response rating [5, 19] | Barnyardgrass plant response rating [8, 18] | Velvetleaf plant response rating [9, 19] | Lambsquarters plant response rating [10, 19] | Crabgrass, Large plant response rating [11, 19] | Cocklebur plant response rating [13, 18] | Surinam Grass plant response rating [16, 19]
20: Morningglory plant response rating [1, 19] | Pigweed plant response rating [7, 19] | Velvetleaf plant response rating [9, 18] | Crabgrass, Large plant response rating [11, 18] | Surinam Grass plant response rating [16, 18]
40: Lambsquarters plant response rating [10, 18]
30: Morningglory plant response rating [1, 18] | Plant response rating (0 to 100 scale), Pigweed ([7]; 125 g ai/ha) | Pigweed plant response rating [7, 18] | Rice plant response rating ([15]; 1000 g ai/ha)
0: Plant response rating (0 to 100 scale), Morningglory ([1]; 125 g ai/ha) | Plant response rating (0 to 100 scale), Corn [2, 22] | Corn plant response rating [2, 19] | Sedge, Umbrella plant response rating ([3]; 1000 g ai/ha) | Oat, Wild plant response rating [4, 18] | Oat, Wild plant response rating [4, 19] | Plant response rating (0 to 100 scale), Foxtail, Giant [5, 22] | Wheat plant response rating [6, 20] | Wheat plant response rating [6, 18] | Wheat plant response rating [6, 19] | Plant response rating (0 to 100 scale), Barnyardgrass [8, 22] | Barnyardgrass plant response rating [8, 21] | Plant response rating (0 to 100 scale), Velvetleaf ([9]; 125 g ai/ha) | Plant response rating (0 to 100 scale), Lambsquarters ([10]; 125 g ai/ha) | Plant response rating (0 to 100 scale), Crabgrass, Large [11, 22] | Ducksalad plant response rating ([12]; 1000 g ai/ha) | Plant response rating (0 to 100 scale), Cocklebur [13, 22] | Cocklebur plant response rating [13, 19] | Barnyardgrass plant response rating ([14]; 1000 g ai/ha) | Plant response rating (0 to 100 scale), Surinam Grass ([16]; 125 g ai/ha) | Blackgrass plant response rating [17, 18] | Blackgrass plant response rating [17, 19]

C=Cc1nn(C(C)(C)C)nc1C(=O)Nc1cccc(C(=O)N(C)C)c1 [Compound 445]
20: Corn plant response rating [2, 19] | Surinam Grass plant response rating [16, 19]
60: Morningglory plant response rating [1, 19] | Oat, Wild plant response rating [4, 18] | Pigweed plant response rating [7, 18] | Lambsquarters plant response rating [10, 19]
50: Wheat plant response rating [6, 18] | Pigweed plant response rating [7, 19] | Velvetleaf plant response rating [9, 18] | Velvetleaf plant response rating [9, 19] | Blackgrass plant response rating [17, 18]
80: Morningglory plant response rating [1, 18] | Sedge, Umbrella plant response rating ([3]; 125 g ai/ha) | Lambsquarters plant response rating [10, 18] | Ducksalad plant response rating ([12]; 125 g ai/ha) | Cocklebur plant response rating [13, 18] | Rice plant response rating ([15]; 125 g ai/ha)
40: Corn plant response rating [2, 18] | Oat, Wild plant response rating [4, 19] | Barnyardgrass plant response rating [8, 18] | Crabgrass, Large plant response rating [11, 18] | Cocklebur plant response rating [13, 19] | Blackgrass plant response rating [17, 19]
90: Barnyardgrass plant response rating ([14]; 125 g ai/ha)
30: Foxtail, Giant plant response rating [5, 18] | Foxtail, Giant plant response rating [5, 19] | Wheat plant response rating [6, 19] | Barnyardgrass plant response rating [8, 21] | Crabgrass, Large plant response rating [11, 19] | Surinam Grass plant response rating [16, 18]
100: Wheat plant response rating [6, 20]

CCOC(=O)c1ccc(F)c(NC(=O)c2nn(C(C)(C)CC)nc2CC)c1 [Compound 373]
20: Morningglory plant response rating [1, 23] | Morningglory plant response rating [1, 18] | Corn plant response rating [2, 24] | Sedge, Umbrella plant response rating ([3]; 1000 g ai/ha) | Foxtail, Giant plant response rating [5, 23] | Barnyardgrass plant response rating [8, 24] | Velvetleaf plant response rating [9, 23] | Lambsquarters plant response rating [10, 23] | Barnyardgrass plant response rating ([14]; 1000 g ai/ha) | Surinam Grass plant response rating [16, 18]
30: Oat, Wild plant response rating [4, 18] | Foxtail, Giant plant response rating [5, 24] | Velvetleaf plant response rating [9, 18] | Lambsquarters plant response rating [10, 18] | Cocklebur plant response rating [13, 24]
50: Pigweed plant response rating [7, 23]
0: Plant response rating (0 to 100 scale), Morningglory ([1]; 125 g ai/ha) | Plant response rating (0 to 100 scale), Corn [2, 22] | Corn plant response rating [2, 23] | Plant response rating (0 to 100 scale), Foxtail, Giant [5, 22] | Wheat plant response rating [6, 23] | Wheat plant response rating [6, 20] | Plant response rating (0 to 100 scale), Pigweed ([7]; 125 g ai/ha) | Plant response rating (0 to 100 scale), Barnyardgrass [8, 22] | Plant response rating (0 to 100 scale), Velvetleaf ([9]; 125 g ai/ha) | Plant response rating (0 to 100 scale), Lambsquarters ([10]; 125 g ai/ha) | Plant response rating (0 to 100 scale), Crabgrass, Large [11, 22] | Ducksalad plant response rating ([12]; 1000 g ai/ha) | Plant response rating (0 to 100 scale), Cocklebur [13, 22] | Rice plant response rating ([15]; 1000 g ai/ha) | Plant response rating (0 to 100 scale), Surinam Grass ([16]; 125 g ai/ha) | Blackgrass plant response rating [17, 23]
70: Pigweed plant response rating [7, 18]
10: Oat, Wild plant response rating [4, 23] | Wheat plant response rating [6, 18] | Barnyardgrass plant response rating [8, 23] | Crabgrass, Large plant response rating [11, 23] | Crabgrass, Large plant response rating [11, 24] | Cocklebur plant response rating [13, 23] | Surinam Grass plant response rating [16, 23] | Blackgrass plant response rating [17, 24]
